Converted amounts (≈) assume the structure as drawn. “Also recorded” adds a separate entry of the source. Where two headings read alike, the source gives them in different places.
Experiments:
sphingomyelinase = assay: TNF-stimulated sphingomyelinase activity; assay type: cell-based; settings: data not shown
leukaemic cell line K562 = assay: Anti-proliferative effect on K562; assay type: cell-based; settings: Homo sapiens
[1] = system: K562, HL60, MCF7, HT29, CaCo-2, DU145, PC3 and LNCaP cell lines; assay: Cytotoxic potency compared with genistein on the cancer cell line panel; assay type: cell-based; settings: on these cell lines
[2] = system: human cervical carcinoma (HeLa); assay: HeLa cell apoptosis; assay type: cell-based; settings: 10 μm
[3] = system: human prostatic adenocarcinoma cell line LNCaP; assay: Proliferation of LNCaP cells, MTT assay; assay type: cell-based
Experimental: Proliferation assay: HUVEC were seeded at 3×10^3 cells per gelatin-coated microtitre well and grown in complete medium for 3 days. Dehydroequol (De) was added 3 hours after plating. Proliferation was measured using the MTT assay (Promega, Wis., USA) and is given as the rate of proliferation over the 3 days±SEM of quadruplicate determinations for each group. Proliferation of LNCaP cells was determined using the MTT assay. Cells were seeded at 2.5×10^3 cells per microtitre well. De was added 4 days after plating and assayed after a further 5 days of growth. Cell viability is expressed as a percentage of control untreated cells.

VCAM-1 = VCAM-1 expression assay on endothelial cells (FACS); assay type: cell-based, human; settings: 10 μg/ml 18 hours prior to stimulation; TNF and IL-1
Experimental: E selectin and VCAM-1 assays: HUVEC were plated at 5×10^5 cells per 6 well dish. Cells were treated with DMSO vehicle or De (10 μg/ml final) for 18 hours prior to TNFα (1 ng/ml) addition. After 4 or 18 hours, cells were washed with PBS and incubated with antibodies against E selectin (Mab49-1B11) or VCAM-1 (Nab51-10C9) for 30 min. Goat F(ab′)2 fragment mouse-IgG(H+L)-FITC antibody (Immunotech, Marseille, France) was then added for 30 min. The cells were then trypsinised and FACS analysed on a Coulter Epics® XL-MCL (Beckman Coulter). Results are expressed as arbitrary units relating to the mean intensity of FITC fluorescence.

human topo II = molecular target: T1, human topo II (Homo sapiens, UniProt P11388); assay: Topo II-mediated plasmid linearisation assay; assay type: biochemical
T1 construct: purchased Topogen (Columbus, Ohio)
Experimental: FIG. 3 represents an assay for determining the effect of dehydroequol on double-stranded DNA cleavage. pRYG DNA was incubated with ten units of human topo II (lanes 2-6) in the absence (lane 1) or presence of 10, 30, or 100 μg/ml dehydroequol (lanes 2-4), or 30 μg/ml genistein (lane 5), or 10 μg/ml VP-16 (lane 6). Lane 7, linear pUC8 DNA marker. Double-strand DNA breakage was determined by converting relaxed (REL) or supercoiled (SC) pRYG DNA to the linear (LIN) form.
A linearisation assay was employed to determine if dehydroequol is a topo II poison. Double-strand breakage results in the appearance of linear DNA. […] This effect, which was evident at 10 μg/ml, peaked at 30 μg/ml.
Topo II poisons enhance topo II-mediated DNA cleavage and can be identified with the linearisation assay under the reaction conditions provided by the supplier of the enzyme (Topogen, Inc.). Briefly, 20-μl reaction mixtures contained 30 mM Tris-HCl, pH 7.6, 3 mM ATP, 15 mM β-mercaptoethanol, 8 mM MgCl2, 60 mM NaCl, 1 μl of the test agent (or solvent), 0.3 μg of pRYG, and 10 units of human topo II (added last). After a 15-min incubation at 37° C., SDS-proteinase K was added, and following a 15 min incubation at 37° C., samples were extracted with CHCl3-isopropanol and electrophoresis was performed on a 1% agarose gel containing ethidium bromide. Gels were photographed, and photographic negatives were scanned.

colon cancer line CaCo-2 = assay: Anti-proliferative effect on CaCo-2; assay type: cell-based; settings: Homo sapiens
human topo I = molecular target: T2, human topo I (Homo sapiens, UniProt P11387); assay: Topo I-mediated plasmid-nicking assay; assay type: biochemical; settings: 20 and 100 μg/ml
T2 construct: purchased Topogen (Columbus, Ohio)
T2 sequence (P11387 1-765): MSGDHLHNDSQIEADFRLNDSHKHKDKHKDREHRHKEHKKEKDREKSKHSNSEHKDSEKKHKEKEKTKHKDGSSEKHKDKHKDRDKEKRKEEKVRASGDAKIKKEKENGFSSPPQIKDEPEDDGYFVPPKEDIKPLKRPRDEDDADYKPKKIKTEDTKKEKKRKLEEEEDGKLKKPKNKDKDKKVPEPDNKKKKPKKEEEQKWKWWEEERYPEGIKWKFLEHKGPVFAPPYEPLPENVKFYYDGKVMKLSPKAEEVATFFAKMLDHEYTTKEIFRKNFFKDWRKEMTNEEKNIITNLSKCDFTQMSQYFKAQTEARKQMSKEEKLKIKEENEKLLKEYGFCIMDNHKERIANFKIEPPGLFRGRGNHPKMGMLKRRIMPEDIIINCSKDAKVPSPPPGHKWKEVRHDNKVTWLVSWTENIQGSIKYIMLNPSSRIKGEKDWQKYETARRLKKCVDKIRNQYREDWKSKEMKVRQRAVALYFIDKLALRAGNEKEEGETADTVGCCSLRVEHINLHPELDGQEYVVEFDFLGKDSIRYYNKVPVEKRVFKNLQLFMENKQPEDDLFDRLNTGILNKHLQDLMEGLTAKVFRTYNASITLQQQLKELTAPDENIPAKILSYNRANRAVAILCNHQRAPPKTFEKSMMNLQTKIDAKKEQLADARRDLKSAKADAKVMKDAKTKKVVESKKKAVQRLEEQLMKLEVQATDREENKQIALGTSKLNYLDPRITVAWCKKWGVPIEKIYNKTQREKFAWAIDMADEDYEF
Experimental: Single-strand DNA breakage was determined by converting relaxed (REL) or supercoiled (SC) pUC8 DNA to the nicked form (NIC).
Under the electrophoretic conditions that were used in the experiment shown in FIG. 4, covalently closed circular (supercoiled or relaxed) plasmid DNA migrates on the bottom of the gel. In the presence of a topo I poison that stabilises the cleavable complex, and following denaturation and degradation of the enzyme with proteinase K/SDS, the resulting nicked DNA migrates on the top of the gel.
Topo I poisons enhance topo I-mediated pUC8 DNA cleavage under the reaction conditions provided by the supplier of the enzyme (Topogen, Inc.). Briefly, 20 μl of reaction mixtures contained 10 mM Tris-HCl, pH 7.5, 1 mM EDTA, 100 mM NaCl, 1 μl of the test agent (or solvent), 0.5 μg of pUC8, and 10 units of human topo I (added last). After a 30-min incubation at 37° C., SDS-proteinase K was added, and, following a 30-min incubation at 37° C., samples were extracted with CHCl3-isopropanol and electrophoresed on a 1% agarose gel containing 0.5 μg/ml ethidium bromide. Gels were photographed, and photographic negatives were scanned.

[4] = system: LNCaP human prostate cells; assay: Athymic mice xenograft assay; assay type: in vivo, athymic Balb/c mice; settings: 2 mg uid orally, 5 days per week, 58 days; treated versus control group, p<0.0003
Experimental: Athymic mice xenograft assay: LNCaP human prostate cells were implanted subcutaneously into athymic Balb/c mice and De (2 mg uid) administered orally from the time of cell inoculation for 5 days per week. Animals were killed 58 days post-implantation and tumour mass (mg) calculated from the formula (width^2×length)/2 as used in NCI.

IL-8 = IL-8 secretion from endothelial cells (immunoassay); assay type: cell-based, human; settings: TNF stimulated endothelial cells
Experimental: IL8 assay: IL-8 assays were performed using a “Quantikine Human IL-8 Immunoassay” (R & D Systems, Minneapolis Minn. USA).

[5] = system: prostate cancer line DU145; assay: Anti-proliferative effect on DU145; assay type: cell-based; settings: Homo sapiens, DU-145
VEGF receptor 2 = VEGF receptor 2 expression on EC, flow cytometric analysis; assay type: cell-based; settings: after De treatment, data not shown

T1 sequence (P11388 whole entry): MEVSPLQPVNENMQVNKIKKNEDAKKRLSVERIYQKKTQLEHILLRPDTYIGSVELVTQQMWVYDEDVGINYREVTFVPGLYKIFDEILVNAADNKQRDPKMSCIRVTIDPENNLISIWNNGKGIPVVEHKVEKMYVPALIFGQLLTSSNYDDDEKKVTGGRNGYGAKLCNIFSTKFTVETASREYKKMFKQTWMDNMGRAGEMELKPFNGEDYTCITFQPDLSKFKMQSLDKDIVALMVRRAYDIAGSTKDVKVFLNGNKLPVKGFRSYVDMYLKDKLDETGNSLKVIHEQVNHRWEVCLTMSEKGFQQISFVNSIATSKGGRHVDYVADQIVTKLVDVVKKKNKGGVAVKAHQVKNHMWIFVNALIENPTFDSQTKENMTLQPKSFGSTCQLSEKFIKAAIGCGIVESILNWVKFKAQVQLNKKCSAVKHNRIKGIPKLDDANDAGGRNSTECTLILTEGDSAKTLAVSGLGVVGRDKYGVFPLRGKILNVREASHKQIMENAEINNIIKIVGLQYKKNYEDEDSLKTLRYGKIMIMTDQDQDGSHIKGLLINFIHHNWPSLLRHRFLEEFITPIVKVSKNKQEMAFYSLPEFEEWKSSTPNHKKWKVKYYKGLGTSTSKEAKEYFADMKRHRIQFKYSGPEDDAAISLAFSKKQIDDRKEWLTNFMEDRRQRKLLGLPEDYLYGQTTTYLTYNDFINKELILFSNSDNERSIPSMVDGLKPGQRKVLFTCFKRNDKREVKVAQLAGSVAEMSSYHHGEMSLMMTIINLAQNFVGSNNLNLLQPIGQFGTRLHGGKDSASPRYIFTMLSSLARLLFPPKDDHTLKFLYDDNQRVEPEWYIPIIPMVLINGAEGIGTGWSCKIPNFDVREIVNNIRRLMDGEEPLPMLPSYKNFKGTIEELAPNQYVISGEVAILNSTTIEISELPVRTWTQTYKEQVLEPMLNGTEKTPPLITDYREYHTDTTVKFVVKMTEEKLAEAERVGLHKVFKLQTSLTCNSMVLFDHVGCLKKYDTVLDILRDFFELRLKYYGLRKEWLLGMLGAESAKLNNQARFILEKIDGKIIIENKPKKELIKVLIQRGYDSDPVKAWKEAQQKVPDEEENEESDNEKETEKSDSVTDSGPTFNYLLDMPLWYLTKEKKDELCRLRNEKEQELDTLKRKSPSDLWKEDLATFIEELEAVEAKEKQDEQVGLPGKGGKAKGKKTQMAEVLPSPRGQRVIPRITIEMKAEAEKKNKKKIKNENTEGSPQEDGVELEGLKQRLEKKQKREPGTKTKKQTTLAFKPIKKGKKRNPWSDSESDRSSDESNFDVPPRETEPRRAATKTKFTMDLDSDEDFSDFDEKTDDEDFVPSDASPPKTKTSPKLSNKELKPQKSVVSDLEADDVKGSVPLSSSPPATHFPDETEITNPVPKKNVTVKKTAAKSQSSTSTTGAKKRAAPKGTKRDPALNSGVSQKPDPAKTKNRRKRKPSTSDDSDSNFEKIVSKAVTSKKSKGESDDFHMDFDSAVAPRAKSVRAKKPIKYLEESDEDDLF

## Oc1ccc(C2=Cc3ccc(O)cc3OC2)cc1 [Dehydroequol, 4′,7-dihydroxyisoflav-3-ene]
sphingomyelinase
  effect on TNF-stimulated sphingomyelinase activity: does not affect
Leukaemic cell line K562
  IC50: 3 µg/mL (≈ 12.5 µM)
[1]
  potency as a cytotoxic agent relative to genistein: 5-20 times
[2]
  apoptosis of HeLa cells: leading to HeLa cell apoptosis
[3]; LNCaP, read-out: IC50 anti-proliferative
  IC50: 1.5 µg/mL
[3]; LnCaP, n=3 separate experiments, read-out: In vitro cytotoxicity IC50
  IC50: 4.4 µM
VCAM-1
  induction of VCAM-1 on the endothelium: inhibits the induction
Human topo II
  concentration producing detectable (comparable) topo II-mediated linear plasmid DNA: 20 µg/mL
Human topo II; genistein 30 μg/ml, VP-16 10 μg/ml
  effect on topo II-mediated DNA strand breakage compared with positive controls: much greater than genistein; also recorded: comparable to VP-16
Human topo II; pRYG DNA, proteinase K/SDS
  concentration at which production of linear plasmid DNA peaked: 30 µg/mL
  concentration at which production of linear plasmid DNA was evident: 10 µg/mL
Colon cancer line CaCo-2
  IC50: 1 µg/mL (≈ 4.16 µM)
Human topo I
  topo I-mediated single-strand DNA breakage (nicked DNA): failed to produce nicked DNA
[4]
  tumour growth inhibition: 49%
IL-8
  secretion of EL-8: inhibits the secretion
[5]
  IC50: 3 µg/mL (≈ 12.5 µM)
VEGF receptor 2
  level of expression of VEGF receptor 2: no changes
